No end group written: not given here.
Tests used:
[1] = tested on: antigen-specific T cell hybridomas stimulated by APCs that do or do not express DM; type: cell-based, murine; conditions: for DM enhancement (fold DM effect): overnight, CTLL/MTT read-out
[2] = tested on: antigen-specific T cells stimulated by APCs that do or do not express DM; experiment: Presentation from native protein versus MalE; type: cell-based, murine; conditions: native protein vs MalE (Fig. S1)
I-A^d = biological target: T1, I-A^d (Mus musculus, UniProt P01921+P04228); type: binding, murine
T1 sequence (P04228 24-111 limits assumed): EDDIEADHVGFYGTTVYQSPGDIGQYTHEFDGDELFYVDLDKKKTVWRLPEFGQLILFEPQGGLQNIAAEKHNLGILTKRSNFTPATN
T1 sequence (P01921 28-122 limits assumed): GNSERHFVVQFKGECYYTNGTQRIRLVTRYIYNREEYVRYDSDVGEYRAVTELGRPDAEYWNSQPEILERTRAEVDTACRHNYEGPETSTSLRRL

[3] = tested on: additional HEL [11–25]–specific and LACK [156–173]–specific T cell hybridomas; experiment: Presentation to additional independently derived T cell hybridomas; type: cell-based, murine; conditions: compared with original T cells
CD4 T cell response = conditions: in vivo response to variant when encoded in MalE (Fig. 4); ref [28]; cited from earlier work

For “HA [126–138]: derived from the influenza hemagglutinin molecule (HNTNGVTAACSHE) [reference compound]”, the “Presentation of synthetic peptide pulsed on DM^+ vs DM^− APCs” value ([1]; APCs pulsed with peptide instead of protein (Fig. 1 G, H; Fig. 2 B)) was “equivalent” and the “Effect of DM expression on presentation” value ([1]; epitope encoded within MalE, DM^+ vs DM^− APCs (Figs. 1 and 2, Table II)) was “modestly antagonized”.
For “HEL [11-25]: cryptic epitope derived from HEL, which has an unstable interaction with class II molecules (AMKRHGLDNYRGYSL; also: fluorescein (FITC) label, position not given here) [reference compound]”, the “Fold more protein required on APCs expressing DM (antagonism)” value [1] was ~10 fold and the “Influence of protein context on DM-mediated presentation” value [2] was “independent of the protein context from which the peptide epitope is derived”.
For “R14Q, N19A, G22S: triple substitution HEL [11–25] variant (AMKQHGLDAYRSYSL; also: fluorescein (FITC) label, position not given here)”, the “Increase in kinetic stability” value (I-A^d) was “threefold”, the “DM enhancement (fold DM effect)” value [1] was 29.7 ± 7.6 fold and the “DM effect detected by additional T cell hybridomas” value [3] was “confirmed this effect on the efficiency of presentation pattern with two additional, independently derived HEL [11–25]–specific hybridomas”.
In the case of “T128G: HA [126–138] P1 substitution (T128G) (HNGNGVTAACSHE)”, the “Immunogenicity of variant encoded in MalE” value (shortened to “Immunogenicity”) (CD4 T cell response) is given as “cryptic”.
For “T128M: high stability HA variant T128M (HNMNGVTAACSHE)”, the “Immunogenicity” value (CD4 T cell response) is given as “immunogenic”.
In the case of “T128Q: kinetic stability variant of HA [126–138] (HNQNGVTAACSHE)”, the “DM enhancement (fold DM effect)” value [1] is given as 3.5 ± 0.7 fold and the “Immunogenicity” value (CD4 T cell response) is given as “immunogenic”.
In the case of “T128V, S136T: kinetic stability variant of HA [126–138] (HNVNGVTAACTHE)”, the “Immunogenicity” value (CD4 T cell response) is given as “cryptic”.
For “V131A: HA [126–138] P4 substitution (V131A) (HNTNGATAACSHE)”, the “Immunogenicity” value (CD4 T cell response) is given as “cryptic”.
